From patent US5843889A, “Glycopeptide antibiotic derivatives” (Eli Lilly and Company, priority 1997, dated 1998)
Converted amounts (≈) assume the structure as drawn.

Experiments:
Experiment in all cases: MIC, standard broth micro-dilution assay
Type in all cases: cell-based
[1] = test system: Entercoccus gallinarum 245
Experimental: (§1) The formula I compounds have in vitro and in vivo activity against Gram-positive pathogenic bacteria. The MIC's were determined using a standard broth micro-dilution assay.

[2] = test system: Entercoccus faecalis 276
Experimental: as §1

[3] = test system: Entercoccus faecalis 2041
Experimental: as §1

Compound | MIC [1] | MIC [2] | MIC [3]
CNC(CC(C)C)C(=O)NC1C(=O)NC(CC(N)=O)C(=O)NC2C(=O)NC3C(=O)NC(C(=O)NC(C(=O)O)c4cc(O)cc(O)c4-c4cc3ccc4O)C(OC3CC(C)(N)C(O)C(C)O3)c3ccc(c(Cl)c3)Oc3cc2cc(c3OC2OC(CO)C(O)C(O)C2OC2CC(C)(NCCCCCCCCCC#Cc3ccccc3)C(O)C(C)O2)Oc2ccc(cc2Cl)C1O (stereo not drawn) [Compound 236, 11-phenyl-10-undecynyl] | 4 µg/mL (≈ 2.2 µM) | 2 µg/mL (≈ 1.1 µM) | 1 µg/mL (≈ 0.55 µM)
CNC(CC(C)C)C(=O)NC1C(=O)NC(CC(N)=O)C(=O)NC2C(=O)NC3C(=O)NC(C(=O)NC(C(=O)O)c4cc(O)cc(O)c4-c4cc3ccc4O)C(OC3CC(C)(N)C(O)C(C)O3)c3ccc(c(Cl)c3)Oc3cc2cc(c3OC2OC(CO)C(O)C(O)C2OC2CC(C)(NCc3ccc(S(=O)(=O)c4ccc(Cl)cc4)cc3)C(O)C(C)O2)Oc2ccc(cc2Cl)C1O (stereo not drawn) [Compound 148, 4-[4-chlorophenylsulfonyl]benzyl] | 2 µg/mL (≈ 1.08 µM) | ≤ 0.06 µg/mL | ≤ 0.06 µg/mL
CC#CCCCCCCCCCCNC1(C)CC(OC2C(Oc3c4cc5cc3Oc3ccc(cc3Cl)C(OC3CC(C)(N)C(O)C(C)O3)C3NC(=O)C(NC(=O)C5NC(=O)C(CC(N)=O)NC(=O)C(NC(=O)C(CC(C)C)NC)C(O)c5ccc(c(Cl)c5)O4)c4ccc(O)c(c4)-c4c(O)cc(O)cc4C(C(=O)O)NC3=O)OC(CO)C(O)C2O)OC(C)C1O (stereo not drawn) [Compound 199, 11-tridecynyl] | 4 µg/mL (≈ 2.26 µM) | 1 µg/mL (≈ 0.565 µM) | ≤ 0.06 µg/mL
CNC(CC(C)C)C(=O)NC1C(=O)NC(CC(N)=O)C(=O)NC2C(=O)NC3C(=O)NC(C(=O)NC(C(=O)O)c4cc(O)cc(O)c4-c4cc3ccc4O)C(OC3CC(C)(N)C(O)C(C)O3)c3ccc(c(Cl)c3)Oc3cc2cc(c3OC2OC(CO)C(O)C(O)C2OC2CC(C)(NCc3ccc(Oc4cccc(Cl)c4)c([N+](=O)[O-])c3)C(O)C(C)O2)Oc2ccc(cc2Cl)C1O (stereo not drawn) [Compound 87, 4-[3-chlorophenoxy]-3-nitrobenzyl] | 2 µg/mL (≈ 1.08 µM) | ≤ 0.06 µg/mL | ≤ 0.06 µg/mL
CNC(CC(C)C)C(=O)NC1C(=O)NC(CC(N)=O)C(=O)NC2C(=O)NC3C(=O)NC(C(=O)NC(C(=O)O)c4cc(O)cc(O)c4-c4cc3ccc4O)C(OC3CC(C)(N)C(O)C(C)O3)c3ccc(cc3)Oc3cc2cc(c3OC2OC(CO)C(O)C(O)C2OC2CC(C)(NCc3ccc(Oc4ccccc4)cc3)C(O)C(C)O2)Oc2ccc(cc2)C1O (stereo not drawn) [Compound 184, 4-phenoxybenzyl] | 4 µg/mL (≈ 2.34 µM) | 0.5 µg/mL (≈ 0.293 µM) | 1 µg/mL (≈ 0.586 µM)
CNC(CC(C)C)C(=O)NC1C(=O)NC(CC(N)=O)C(=O)NC2C(=O)NC3C(=O)NC(C(=O)NC(C(=O)O)c4cc(O)cc(O)c4-c4cc3ccc4O)C(OC3CC(C)(N)C(O)C(C)O3)c3ccc(c(Cl)c3)Oc3cc2cc(c3OC2OC(CO)C(O)C(O)C2OC2CC(C)(NCc3ccc(OCc4ccccc4)c(OCc4ccccc4)c3)C(O)C(C)O2)Oc2ccc(cc2Cl)C1O (stereo not drawn) [Compound 53] | 2 µg/mL (≈ 1.06 µM) | 8 µg/mL (≈ 4.22 µM) | 1 µg/mL (≈ 0.528 µM)
CNC(CC(C)C)C(=O)NC1C(=O)NC(CC(N)=O)C(=O)NC2C(=O)NC3C(=O)NC(C(=O)NC(C(=O)O)c4cc(O)cc(O)c4-c4cc3ccc4O)C(OC3CC(C)(N)C(O)C(C)O3)c3ccc(c(Cl)c3)Oc3cc2cc(c3OC2OC(CO)C(O)C(O)C2OC2CC(C)(NCCc3ccc(OCc4ccccc4)cc3)C(O)C(C)O2)Oc2ccc(cc2Cl)C1O (stereo not drawn) [Compound 68, 4-benzyloxyphenethyl] | 4 µg/mL (≈ 2.22 µM) | ≤ 0.06 µg/mL | ≤ 0.06 µg/mL
CNC(CC(C)C)C(=O)NC1C(=O)NC(CC(N)=O)C(=O)NC2C(=O)NC3C(=O)NC(C(=O)NC(C(=O)O)c4cc(O)cc(O)c4-c4cc3ccc4O)C(OC3CC(C)(N)C(O)C(C)O3)c3ccc(c(Cl)c3)Oc3cc2cc(c3OC2OC(CO)C(O)C(O)C2OC2CC(C)(NCc3cccc(OCC4CCCCC4)c3)C(O)C(C)O2)Oc2ccc(cc2Cl)C1O (stereo not drawn) [Compound 123, 3-[cyclohexylmethoxy]benzyl] | 1 µg/mL (≈ 0.557 µM) | 0.25 µg/mL (≈ 0.139 µM) | ≤ 0.06 µg/mL
CN[C@H](CC(C)C)C(=O)N[C@H]1C(=O)N[C@@H](CC(N)=O)C(=O)N[C@H]2C(=O)N[C@H]3C(=O)N[C@H](C(=O)N[C@H](C(=O)O)c4cc(O)cc(O)c4-c4cc3ccc4O)[C@H](O[C@H]3C[C@](C)(N)[C@@H](O)[C@H](C)O3)c3ccc(c(Cl)c3)Oc3cc2cc(c3O[C@@H]2O[C@H](CO)[C@@H](O)[C@H](O)[C@H]2O[C@H]2C[C@](C)(NCc3ccc(Oc4ccc(C(C)(C)C)cc4)cc3)[C@@H](O)[C@H](C)O2)Oc2ccc(cc2Cl)[C@H]1O [Compound 96, 4-[4-t-butylphenoxy]benzyl] | 2 µg/mL (≈ 1.09 µM) | 0.5 µg/mL (≈ 0.273 µM) | 1 µg/mL (≈ 0.546 µM)
CNC(CC(C)C)C(=O)NC1C(=O)NC(CC(N)=O)C(=O)NC2C(=O)NC3C(=O)NC(C(=O)NC(C(=O)O)c4cc(O)cc(O)c4-c4cc3ccc4O)C(OC3CC(C)(N)C(O)C(C)O3)c3ccc(c(Cl)c3)Oc3cc2cc(c3OC2OC(CO)C(O)C(O)C2OC2CC(C)(NCc3ccc(OC(F)(F)C(F)F)cc3)C(O)C(C)O2)Oc2ccc(cc2Cl)C1O (stereo not drawn) [Compound 121, 4-[1,1,2,2-tetrafluoroethoxy]benzyl] | 2 µg/mL (≈ 1.11 µM) | ≤ 0.06 µg/mL | ≤ 0.06 µg/mL

Results, then the compound that gave them:

MIC [1] | MIC [2] | MIC [3] | Compound
2 µg/mL (≈ 1.14 µM) | ≤ 0.06 µg/mL | ≤ 0.06 µg/mL | CN[C@H](CC(C)C)C(=O)N[C@H]1C(=O)N[C@@H](CC(N)=O)C(=O)N[C@H]2C(=O)N[C@H]3C(=O)N[C@H](C(=O)N[C@H](C(=O)O)c4cc(O)cc(O)c4-c4cc3ccc4O)[C@H](O[C@H]3C[C@](C)(N)[C@@H](O)[C@H](C)O3)c3ccc(c(Cl)c3)Oc3cc2cc(c3O[C@@H]2O[C@H](CO)[C@@H](O)[C@H](O)[C@H]2O[C@H]2C[C@](C)(NCc3cccc(-c4ccccc4)c3)[C@@H](O)[C@H](C)O2)Oc2ccc(cc2Cl)[C@H]1O [Compound 91, 3-phenylbenzyl]
≤ 0.06 µg/mL | ≤ 0.06 µg/mL | ≤ 0.06 µg/mL | CNC(CC(C)C)C(=O)NC1C(=O)NC(CC(N)=O)C(=O)NC2C(=O)NC3C(=O)NC(C(=O)NC(C(=O)O)c4cc(O)cc(O)c4-c4cc3ccc4O)C(OC3CC(C)(N)C(O)C(C)O3)c3ccc(c(Cl)c3)Oc3cc2cc(c3OC2OC(CO)C(O)C(O)C2OC2CC(C)(NCc3sccc3-c3cccs3)C(O)C(C)O2)Oc2ccc(cc2Cl)C1O (stereo not drawn) [Compound 238, 3-[2-thienyl]-2-thienylmethyl]
8 µg/mL (≈ 4.48 µM) | 0.25 µg/mL (≈ 0.14 µM) | ≤ 0.06 µg/mL | CNC(CC(C)C)C(=O)NC1C(=O)NC(CC(N)=O)C(=O)NC2C(=O)NC3C(=O)NC(C(=O)NC(C(=O)O)c4cc(O)cc(O)c4-c4cc3ccc4O)C(OC3CC(C)(N)C(O)C(C)O3)c3ccc(c(Cl)c3)Oc3cc2cc(c3OC2OC(CO)C(O)C(O)C2OC2CC(C)(NCc3ccc4c(c3O)Cc3ccccc3-4)C(O)C(C)O2)Oc2ccc(cc2Cl)C1O (stereo not drawn) [Compound 103, 2-[1-hydroxy]fluorenylmethyl]
8 µg/mL (≈ 4.46 µM) | 2 µg/mL (≈ 1.11 µM) | 1 µg/mL (≈ 0.557 µM) | CNC(CC(C)C)C(=O)NC1C(=O)NC(CC(N)=O)C(=O)NC2C(=O)NC3C(=O)NC(C(=O)NC(C(=O)O)c4cc(O)cc(O)c4-c4cc3ccc4O)C(OC3CC(C)(N)C(O)C(C)O3)c3ccc(c(Cl)c3)Oc3cc2cc(c3OC2OC(CO)C(O)C(O)C2OC2CC(C)(NCc3ccc(-c4ccc(OC)cc4)s3)C(O)C(C)O2)Oc2ccc(cc2Cl)C1O (stereo not drawn) [Compound 71, 5-[4-methoxyphenyl]-2-thienylinethyl]
4 µg/mL (≈ 2.27 µM) | 0.5 µg/mL (≈ 0.284 µM) | ≤ 0.06 µg/mL | CNC(CC(C)C)C(=O)NC1C(=O)NC(CC(N)=O)C(=O)NC2C(=O)NC3C(=O)NC(C(=O)NC(C(=O)O)c4cc(O)cc(O)c4-c4cc3ccc4O)C(OC3CC(C)(N)C(O)C(C)O3)c3ccc(c(Cl)c3)Oc3cc2cc(c3OC2OC(CO)C(O)C(O)C2OC2CC(C)(NCc3ccc4cc(OC)ccc4c3)C(O)C(C)O2)Oc2ccc(cc2Cl)C1O (stereo not drawn) [Compound 65, 6-methoxy-2-naphthylmethyl]
0.5 µg/mL (≈ 0.282 µM) | ≤ 0.06 µg/mL | ≤ 0.06 µg/mL | CNC(CC(C)C)C(=O)NC1C(=O)NC(CC(N)=O)C(=O)NC2C(=O)NC3C(=O)NC(C(=O)NC(C(=O)O)c4cc(O)cc(O)c4-c4cc3ccc4O)C(OC3CC(C)(N)C(O)C(C)O3)c3ccc(c(Cl)c3)Oc3cc2cc(c3OC2OC(CO)C(O)C(O)C2OC2CC(C)(NCc3ccc(-c4cccc(C)c4)cc3)C(O)C(C)O2)Oc2ccc(cc2Cl)C1O (stereo not drawn) [Compound 224, 4-[3-methylphenyl]benzyl]
1 µg/mL (≈ 0.563 µM) | ≤ 0.06 µg/mL | 0.25 µg/mL (≈ 0.141 µM) | CNC(CC(C)C)C(=O)NC1C(=O)NC(CC(N)=O)C(=O)NC2C(=O)NC3C(=O)NC(C(=O)NC(C(=O)O)c4cc(O)cc(O)c4-c4cc3ccc4O)C(OC3CC(C)(N)C(O)C(C)O3)c3ccc(c(Cl)c3)Oc3cc2cc(c3OC2OC(CO)C(O)C(O)C2OC2CC(C)(NCc3ccc(-c4ccccc4)cc3F)C(O)C(C)O2)Oc2ccc(cc2Cl)C1O (stereo not drawn) [Compound 206, 4-phenyl-2-fluorobenzyl]
1 µg/mL (≈ 0.56 µM) | ≤ 0.06 µg/mL | ≤ 0.06 µg/mL | CNC(CC(C)C)C(=O)NC1C(=O)NC(CC(N)=O)C(=O)NC2C(=O)NC3C(=O)NC(C(=O)NC(C(=O)O)c4cc(O)cc(O)c4-c4cc3ccc4O)C(OC3CC(C)(N)C(O)C(C)O3)c3ccc(c(Cl)c3)Oc3cc2cc(c3OC2OC(CO)C(O)C(O)C2OC2CC(C)(NCc3ccc(N=Nc4ccccc4)cc3)C(O)C(C)O2)Oc2ccc(cc2Cl)C1O (stereo not drawn) [Compound 210, 4-[phenylazo]benzyl]
4 µg/mL (≈ 2.35 µM) | ≤ 0.06 µg/mL | ≤ 0.06 µg/mL | CNC(CC(C)C)C(=O)NC1C(=O)NC(CC(N)=O)C(=O)NC2C(=O)NC3C(=O)NC(C(=O)NC(C(=O)O)c4cc(O)cc(O)c4-c4cc3ccc4O)C(OC3CC(C)(N)C(O)C(C)O3)c3ccc(c(Cl)c3)Oc3cc2cc(c3OC2OC(CO)C(O)C(O)C2OC2CC(C)(NCc3ccccc3O)C(O)C(C)O2)Oc2ccc(cc2Cl)C1O (stereo not drawn) [Compound 169, 2-hydroxybenzyl]
